Source: patent US20210386729A1, “METHODS FOR TREATING LIVER DISORDERS USING FXR AGONISTS” (NOVARTIS AG, priority 2016, published 2021)
Converted amounts (≈) assume the structure as drawn. “Also recorded” adds a separate entry of the source. Where two headings read alike, the source gives them in different places.

Tests used:
[1] = tested on: rat alpha-naphthyl-isothiocyanate (ANIT) model; test: Chronic treatment rat ANIT model, serum markers of cholestasis and liver damage; assay type: in vivo; conditions: 14 days oral dosing
Description: This model was utilized because it recapitulates many features of cholestasis observed in human PBC. In rats, ANIT-treatment leads to hepatic inflammatory cell infiltrate, bile duct hyperplasia, necrosis of bile duct epithelium, expansion of the hepatic portal region, hepatic fibrosis, hepatocellular necrosis and elevated levels of circulating bile acids, bilirubin, ALT, AST and GGT. These features are similar to subjects with advanced PBC.
Rats were treated with alpha-naphthyl-isothiocyanate (ANIT) (0.1% w/w) in food for 3 days prior to treatment with the compound at the indicated doses or with vehicle control (“Veh”). A non-cholestatic control group was fed standard chow diet without ANIT, and serve as the non-cholestatic control animals (“Control”). After 14 days of oral dosing, the indicated analyte was measured in serum. LLQ, lower limit of quantitation. Mean±SEM; n=5.

[2] = tested on: rat ANIT-induced cholestasis chronic treatment model; test: PK/PD modeling of effective exposure in rat ANIT-induced cholestasis chronic treatment model; assay type: in vivo
Description: Male Wistar rats were treated with ANIT (0.1% ANIT in chow diet) for 2 weeks. […] The serum samples were collected on day 14 for analysis of biomarkers of hepatobiliary injury (including ALT, AST, bilirubin and bile acids). The PK samples (pre-dose, 0.5, 1, 3, 7, 10 and 24 h, n=3/dose group) were taken on day 13 (at steady-state). […] The mean biomarker data were compared to the PK data (average concentration at each dose) for the modeling. The IC80 was determined using the Inhibitory effect Imax model (effect C=0 at Imax, C=infinity at E0) built in Phoenix WinNonlin 6.3 software. […] Therefore, we chose to use a mean of the IC80 for the four biomarkers (total bilirubin, total bile acids, ALT and AST) as the IC80 for efficacy in this model. From these studies, the IC80 of LJN452 was 0.127 ng/ml and the corresponding AUC0-24 h was 3.05 ng*h/ml (Table 1), and the corresponding efficacious dose is approximately 0.01 mg/kg (based on Table 1 and Table 2).
E0, effect at zero drug concentration; Imax, maximal drug effect; IC80, drug concentration producing 80% of the maximum effect.
The PK samples (pre-dose, 0.5, 1, 3, 7, 10 and 24 h, n=3/dose group) were taken on day 13 (at steady-state). AUC0-24 h was determined using Phoenix WinNonlin 6.3 software and the average concentrations were calculated from mean of AUC0-24 h at each dose (divided the AUC0-24 h by 24 h). The individual biomarker data were compared to the PK data (average concentration at each dose) for the modeling. Since the lowest dose (0.01 mg/kg) already approached maximal efficacy, the IC80 was chosen as the measurement of the efficacious exposure (Table 1). The IC80 was determined using the Inhibitory effect Imax model (effect C=0 at Imax, C=infinity at E0) built in Phoenix WinNonlin 6.3 software.
E0: effect at zero drug concentration; Imax: maximal drug effect IC80, drug concentration producing 80% of the maximum effect.

[3] = Single oral dose plasma pharmacokinetics in healthy subjects; assay type: in vivo, human; conditions: for CL/F / AUC(0-inf) / AUC(0-t) / Cmax / half-life / Tmax: healthy subjects, plasma; for AUC(0-inf) / AUC(0-t) / Cmax / half-life / Tmax: human
[4] = Safety and tolerability in healthy subjects; assay type: in vivo, human
[5] = In vitro potency, human vs rat
FGF19 = conditions: healthy subjects, single and repeated dosing
[6] = effect at zero drug concentration, 2-week rat ANIT model, serum
[7] = maximal drug effect, 2-week rat ANIT model, serum
[8] = 10 ug, single oral dose 10 μg, fasted, mean
[9] = 30 ug, single oral dose 30 μg, fasted, mean
[10] = 100 ug, single oral dose 100 μg, fasted, mean
[11] = 300 ug, single oral dose 300 μg, fasted, mean
[12] = 1000 ug, single oral dose 1000 μg, fasted, mean
[13] = 3000 ug, single oral dose 3000 μg, fasted, mean
[14] = clinical study in healthy subjects

## O=C(O)c1cc(F)c2nc(N3C4CC[C@H]3CC(OCc3c(-c5ccccc5OC(F)(F)F)noc3C3CC3)C4)sc2c1 (some centres unmarked) [Compound A]
[1]
  serum bile acid concentrations: Marked reductions
  serum bilirubin concentrations: Marked reductions
[1]; 0.01 to 3 mg/kg
  hepatobiliary injury indicators (AST, ALT, bilirubin, bile acids) in serum: improved many of these indicators starting at doses as low as 0.01 mg/kg
[2]; AUC0-24 h corresponding to mean IC80, rat ANIT model
  Mean (efficacious AUC0-24 h): 3.05 ng·h/mL
[2]; drug concentration producing 80% of the maximum effect, rat ANIT model, read-out: IC80, ALT
  IC80: 0.054 ng/mL (≈ 0.0895 nM)
[2]; drug concentration producing 80% of the maximum effect, rat ANIT model, read-out: IC80, AST
  IC80: 0.076 ng/mL (≈ 0.126 nM)
[2]; drug concentration producing 80% of the maximum effect, rat ANIT model, read-out: IC80, Total bile acids
  IC80: 0.155 ng/mL (≈ 0.257 nM)
[2]; drug concentration producing 80% of the maximum effect, rat ANIT model, read-out: IC80, Total bilirubin
  IC80: 0.223 ng/mL (≈ 0.369 nM)
[2]; [6]
  E0, ALT: 138.2 U/L
  E0, AST: 272.8 U/L
  E0, Total bile acids: 147.8 µmol/L
  E0, Total bilirubin: 2.3 mg/dL
[2]; [7]
  Imax, ALT: 84.2 U/L
  Imax, AST: 140.3 U/L
  Imax, Total bile acids: 125.5 µmol/L
  Imax, Total bilirubin: 2.0 mg/dL
[2]; mean of IC80 for total bilirubin, total bile acids, ALT and AST, rat ANIT model, read-out: Mean (IC80)
  IC80: 0.127 ng/mL (≈ 0.21 nM)
[2]; rat ANIT model, based on Table 1 and Table 2
  corresponding efficacious dose: approximately 0.01 mg/kg
[3]; single oral dose 10 μg, fasted, mean
  CL/F: 2.98 L/h
[3]; single oral dose 30 μg, fasted, mean
  CL/F: 2.26 L/h
[3]; single oral dose 100 μg, fasted, mean
  CL/F: 3.08 L/h
[3]; single oral dose 300 μg, fasted, mean
  CL/F: 3.21 L/h
[3]; single oral dose 1000 μg, fasted, mean
  CL/F: 2.43 L/h
[3]; single oral dose 3000 μg, fasted, mean
  CL/F: 3.63 L/h
[3]; [8]
  AUC(0-inf): 3.39 ng·h/mL
  AUC(0-t): 2.79 ng·h/mL
  Cmax: 0.186 ng/mL
[3]; 10 ug, single oral dose 10 μg, fasted, mean, read-out: T1/2 (converted)
  half-life: 14.9 h
[3]; 10 ug, single oral dose 10 μg, fasted, median, read-out: Tmax
  Tmax: 4 h
[3]; [9]
  AUC(0-inf): 13.4 ng·h/mL
  AUC(0-t): 12.7 ng·h/mL
  Cmax: 0.627 ng/mL
[3]; 30 ug, single oral dose 30 μg, fasted, mean, read-out: T1/2 (converted)
  half-life: 13.7 h
[3]; 30 ug, single oral dose 30 μg, fasted, median, read-out: Tmax
  Tmax: 4 h
[3]; [10]
  AUC(0-inf): 37.9 ng·h/mL
  AUC(0-t): 34.8 ng·h/mL
  Cmax: 1.73 ng/mL
[3]; 100 ug, single oral dose 100 μg, fasted, mean, read-out: T1/2 (converted)
  half-life: 13.5 h
[3]; 100 ug, single oral dose 100 μg, fasted, median, read-out: Tmax
  Tmax: 4 h
[3]; [11]
  AUC(0-inf): 123 ng·h/mL
  AUC(0-t): 119 ng·h/mL
  Cmax: 6.41 ng/mL
[3]; 300 ug, single oral dose 300 μg, fasted, mean, read-out: T1/2 (converted)
  half-life: 15.3 h
[3]; 300 ug, single oral dose 300 μg, fasted, median, read-out: Tmax
  Tmax: 4 h
[3]; [12]
  AUC(0-inf): 482 ng·h/mL
  AUC(0-t): 416 ng·h/mL
  Cmax: 22.1 ng/mL
[3]; 1000 ug, single oral dose 1000 μg, fasted, mean, read-out: T1/2 (converted)
  half-life: 21.9 h
[3]; 1000 ug, single oral dose 1000 μg, fasted, median, read-out: Tmax
  Tmax: 4 h
[3]; [13]
  AUC(0-inf): 933 ng·h/mL
  AUC(0-t): 888 ng·h/mL
  Cmax: 54.2 ng/mL
[3]; 3000 ug, single oral dose 3000 μg, fasted, mean, read-out: T1/2 (converted)
  half-life: 16.5 h
[3]; 3000 ug, single oral dose 3000 μg, fasted, median, read-out: Tmax
  Tmax: 4 h
[3]; single oral dose, fasted, read-out: median Tmax
  Tmax: 4 h
[3]; single oral dose, range across doses, read-out: mean apparent terminal elimination half-life
  half-life: 13 to 22 h
[3]; single dose, dose range 10 μg to 3000 μg
  dose proportionality of mean Cmax and AUCinf: approximately dose proportional increase
[4]; 100 μg repeated daily
  elevation of transaminases (ALT and AST), number of subjects: 3 subjects
[4]; 100 μg repeated daily, any subject
  ALP or bilirubin: no elevation
[4]; 100 μg, without intervention
  time for elevated ALT to resolve to within normal levels: ≤ 14 days
[4]; [14]
  adverse events related to itch: no adverse events related to itch
  physical exam, vital signs or ECGs: No significant findings
[4]; repeated daily administration, doses up to and including 60 μg
  tolerability: well tolerated
[5]
  in vitro potency between human and rat: similar
FXR target genes; rat liver
  BSEP gene expression levels: significant, dose-dependent increases
  SHP gene expression levels: significant, dose-dependent increases
FXR target genes; rats treated two weeks, FXR target gene induction/repression in liver and ileum, day 14
  estimated effective dose (mean ED and median ED): approximately 0.01 mg/kg
FGF19
  FGF19 response to dose: Dose-dependent increases; also recorded: continues to rise with increasing Compound A doses beyond 100 μg
